This note sets out measurements from ChEMBL document CHEMBL4739709, “Novel cyclin-dependent kinase 8 and/or 19 inhibitor” (2020).

As a reminder, the inhibition is the drop in the measured response relative to a control, in per cent.

Active and inactive are the calls of the source. The rule behind the calls is not given here. A value given as a limit tells only on which side of the number the result lay.

Test [1] has as its target CDK8/Cyclin C (Homo sapiens) (UniProt P49336+P24863). Description: Inhibition of human CDK8/cyclin C at 1 uM incubated for 30 mins by ELISA. The test is classed as protein-complex assay.
The test system of test [2] is MV4-11. Description: Inhibition of cell proliferation of human MV4-11 cells at 1 uM incubated for 3 days by CellTiter 96 aqueous one solution cell proliferation assay. As to conditions: MV4-11, 72 h, time 3 day. The test is classed as functional.
Test [3] addresses Cyclin-dependent kinase 19 (Homo sapiens) (UniProt Q9BWU1). Description: Inhibition of CDK19 (unknown origin) at 1 uM incubated for 30 mins by ELISA. For orientation: In an ELISA, binding on a coated surface is turned into a signal by an enzyme label.
Test [4] addresses RAC-alpha serine/threonine-protein kinase (Homo sapiens) (UniProt P31749). The experiment in a line: Inhibition of human AKT1 at 1 uM using substrate peptide by off-chip mobility shift assay.
The target in test [5] is AMP-activated protein kinase (AMPK) alpha-1/beta-1/gamma-1 (Homo sapiens) (UniProt P54619+Q9Y478+Q13131). The experiment in a line: Inhibition of human AMPKalpha1/beta1/gamma1 at 1 uM using substrate peptide by off-chip mobility shift assay.
AMP-activated protein kinase (AMPK) alpha-1/beta-1/gamma-1 (Homo sapiens), sequence (P54619 whole entry): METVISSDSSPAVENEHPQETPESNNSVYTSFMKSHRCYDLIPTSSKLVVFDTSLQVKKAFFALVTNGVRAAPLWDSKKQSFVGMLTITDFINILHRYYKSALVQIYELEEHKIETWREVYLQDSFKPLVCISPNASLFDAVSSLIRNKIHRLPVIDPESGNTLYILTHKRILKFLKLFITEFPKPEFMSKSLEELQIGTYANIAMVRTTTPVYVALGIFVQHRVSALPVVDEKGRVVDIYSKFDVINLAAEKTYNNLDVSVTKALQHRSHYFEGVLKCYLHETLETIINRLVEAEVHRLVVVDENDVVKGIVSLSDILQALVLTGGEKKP
AMP-activated protein kinase (AMPK) alpha-1/beta-1/gamma-1 (Homo sapiens), sequence (Q13131 whole entry partner): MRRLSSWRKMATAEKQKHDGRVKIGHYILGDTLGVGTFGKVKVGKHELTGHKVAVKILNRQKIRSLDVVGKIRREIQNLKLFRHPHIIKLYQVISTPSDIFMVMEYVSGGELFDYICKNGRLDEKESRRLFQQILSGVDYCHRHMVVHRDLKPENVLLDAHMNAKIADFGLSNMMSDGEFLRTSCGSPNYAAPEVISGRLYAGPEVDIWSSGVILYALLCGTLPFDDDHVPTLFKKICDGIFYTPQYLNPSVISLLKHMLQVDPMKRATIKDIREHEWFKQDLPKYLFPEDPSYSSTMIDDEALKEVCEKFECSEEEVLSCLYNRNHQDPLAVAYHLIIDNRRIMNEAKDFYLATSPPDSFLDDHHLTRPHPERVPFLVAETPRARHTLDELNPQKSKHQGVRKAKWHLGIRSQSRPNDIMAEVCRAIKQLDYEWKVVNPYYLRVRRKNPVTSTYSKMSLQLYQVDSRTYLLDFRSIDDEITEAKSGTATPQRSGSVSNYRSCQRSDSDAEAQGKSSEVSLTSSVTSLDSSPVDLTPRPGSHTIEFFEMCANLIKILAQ
AMP-activated protein kinase (AMPK) alpha-1/beta-1/gamma-1 (Homo sapiens), sequence (Q9Y478 2-270 partner limits assumed): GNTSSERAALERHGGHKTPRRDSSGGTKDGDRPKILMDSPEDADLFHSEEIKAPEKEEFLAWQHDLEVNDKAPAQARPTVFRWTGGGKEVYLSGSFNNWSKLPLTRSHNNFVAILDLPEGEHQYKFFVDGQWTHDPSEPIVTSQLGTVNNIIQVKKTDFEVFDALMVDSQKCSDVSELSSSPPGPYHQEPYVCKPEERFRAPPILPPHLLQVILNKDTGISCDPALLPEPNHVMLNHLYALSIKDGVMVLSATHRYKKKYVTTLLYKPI
For test [6], the target named is Aurora kinase A (Homo sapiens) (UniProt O14965). The experiment in a line: Inhibition of human Aurora A at 1 uM using substrate peptide by off-chip mobility shift assay.
For test [7], the target named is Calcium/calmodulin-dependent protein kinase type IV (Homo sapiens) (UniProt Q16566). Description: Inhibition of human CaMK4 at 1 uM using substrate peptide by off-chip mobility shift assay.
Test [8] concerns the target Cyclin-dependent kinase 1/cyclin B1 (Homo sapiens) (UniProt P06493+P14635). The experiment in a line: Inhibition of human CDC2/CycB1 at 1 uM using substrate peptide by off-chip mobility shift assay. The test is classed as protein-complex assay.
The target in test [9] is CDK2/Cyclin C (Homo sapiens) (UniProt P24941+P24863). Description: Inhibition of human CDK2/CycC2 at 1 uM using substrate peptide by off-chip mobility shift assay.
Test [10] concerns the target Cyclin-dependent kinase 2/cyclin E1 (Homo sapiens) (UniProt P24864+P24941). Description: Inhibition of human CDK2/CycE1 at 1 uM using substrate peptide by off-chip mobility shift assay. The test is classed as protein-complex assay.
The target of test [11] is CDK3/Cyclin E (Homo sapiens) (UniProt P24864+Q00526). Description: Inhibition of human CDK3/CycE1 at 1 uM using substrate peptide by off-chip mobility shift assay. Type of test: protein-complex assay.
CDK3/Cyclin E (Homo sapiens), sequence (P24864 whole entry, looked up): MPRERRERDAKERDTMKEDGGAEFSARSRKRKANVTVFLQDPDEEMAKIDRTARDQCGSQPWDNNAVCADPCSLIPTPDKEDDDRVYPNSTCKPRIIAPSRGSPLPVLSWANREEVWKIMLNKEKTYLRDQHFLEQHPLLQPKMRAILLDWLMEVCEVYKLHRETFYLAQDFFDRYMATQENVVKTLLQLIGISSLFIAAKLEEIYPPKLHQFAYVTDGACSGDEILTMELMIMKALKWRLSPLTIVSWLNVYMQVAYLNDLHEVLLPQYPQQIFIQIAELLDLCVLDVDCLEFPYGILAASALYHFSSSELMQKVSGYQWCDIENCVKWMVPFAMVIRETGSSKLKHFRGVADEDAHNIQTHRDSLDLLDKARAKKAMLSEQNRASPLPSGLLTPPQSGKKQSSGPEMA
CDK3/Cyclin E (Homo sapiens), sequence (Q00526 whole entry, looked up): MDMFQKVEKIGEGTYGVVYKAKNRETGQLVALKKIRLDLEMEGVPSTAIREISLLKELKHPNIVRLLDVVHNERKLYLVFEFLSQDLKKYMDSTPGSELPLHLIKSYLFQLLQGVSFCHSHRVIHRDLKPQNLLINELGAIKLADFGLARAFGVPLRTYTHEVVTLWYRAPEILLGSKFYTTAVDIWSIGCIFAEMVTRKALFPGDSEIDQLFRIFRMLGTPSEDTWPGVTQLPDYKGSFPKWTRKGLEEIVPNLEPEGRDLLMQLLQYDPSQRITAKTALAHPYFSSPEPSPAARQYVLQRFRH
Test [12] has as its target CDK4/Cyclin D3 (Homo sapiens) (UniProt P11802+P30281). Description: Inhibition of human CDK4/CycD3 at 1 uM using substrate peptide by off-chip mobility shift assay. The test is classed as protein-complex assay.
For test [13], the target named is Cyclin-dependent kinase 5/CDK5 activator 1 (Homo sapiens) (UniProt Q00535+Q15078). The experiment in a line: Inhibition of human CDK5/p25 at 1 uM using substrate peptide by off-chip mobility shift assay. Type of test: protein-complex assay.
For test [14], the target named is CDK6/cyclin D3 (Homo sapiens) (UniProt P30281+Q00534). Description: Inhibition of human CDK6/cyclinD3 at 1 uM using substrate peptide by off-chip mobility shift assay. The test is classed as protein-complex assay.
The target of test [15] is CDK7/Cyclin H/MNAT1 (Homo sapiens) (UniProt P51946+P50613+P51948). Description: Inhibition of human CDK7/CycH/MAT1 at 1 uM using substrate peptide by off-chip mobility shift assay. Type of test: protein-complex assay.
Test [16] has as its target CDK9/cyclin T1 (Homo sapiens) (UniProt O60563+P50750). Description: Inhibition of human CDK9/CycT1 at 1 uM using substrate peptide by off-chip mobility shift assay. The test is classed as protein-complex assay.
Test [17] deals with Serine/threonine-protein kinase Chk1 (Homo sapiens) (UniProt O14757). The experiment in a line: Inhibition of human CHK1 at 1 uM using substrate peptide by off-chip mobility shift assay.
Test [18] is filed under the species Homo sapiens. The experiment in a line: Inhibition of human CK1delta at 1 uM using substrate peptide by off-chip mobility shift assay.
For test [19], the target named is Death-associated protein kinase 1 (Homo sapiens) (UniProt P53355). Description: Inhibition of human DAPK1 at 1 uM using substrate peptide by off-chip mobility shift assay.
The target in test [20] is Dual specificity tyrosine-phosphorylation-regulated kinase 1B (Homo sapiens) (UniProt Q9Y463). Description: Inhibition of human DYRK1B at 1 uM using substrate peptide by off-chip mobility shift assay.
The target of test [21] is Mitogen-activated protein kinase 1 (Homo sapiens) (UniProt P28482). The experiment in a line: Inhibition of human ERK2 at 1 uM using substrate peptide by off-chip mobility shift assay.
Test [22] addresses Glycogen synthase kinase-3 beta (Homo sapiens) (UniProt P49841). The experiment in a line: Inhibition of human GSK3beta at 1 uM using substrate peptide by off-chip mobility shift assay.
For test [23], the target named is Mitogen-activated protein kinase kinase kinase kinase 4 (Homo sapiens) (UniProt O95819). The experiment in a line: Inhibition of human HGK at 1 uM using substrate peptide by off-chip mobility shift assay.
Test [24] concerns the target Inhibitor of nuclear factor kappa-B kinase subunit beta (Homo sapiens) (UniProt O14920). Description: Inhibition of human IKKbeta at 1 uM using substrate peptide by off-chip mobility shift assay.
Test [25] addresses Interleukin-1 receptor-associated kinase 4 (Homo sapiens) (UniProt Q9NWZ3). The experiment in a line: Inhibition of human IRAK4 at 1 uM using substrate peptide by off-chip mobility shift assay.
For test [26] the target is unchanged. The experiment in a line: Inhibition of human JNK2 at 1 uM using substrate peptide by off-chip mobility shift assay.
In test [27] the target is Mitogen-activated protein kinase kinase kinase kinase 2 (Homo sapiens) (UniProt Q12851). The experiment in a line: Inhibition of human MAP4K2 at 1 uM using substrate peptide by off-chip mobility shift assay.
Test [28] has as its target Serine/threonine-protein kinase 4 (Homo sapiens) (UniProt Q13043). The experiment in a line: Inhibition of human MST1 at 1 uM using substrate peptide by off-chip mobility shift assay.
For test [29], the target named is Serine/threonine-protein kinase Nek2 (Homo sapiens) (UniProt P51955). Description: Inhibition of human NEK2 at 1 uM using substrate peptide by off-chip mobility shift assay.
The target of test [30] is Mitogen-activated protein kinase 14 (Homo sapiens) (UniProt Q16539). The experiment in a line: Inhibition of human p38alpha at 1 uM using substrate peptide by off-chip mobility shift assay.
For test [31], the species on record is Homo sapiens. The experiment in a line: Inhibition of human p70S6K at 1 uM using substrate peptide by off-chip mobility shift assay.
In test [32] the target is Serine/threonine-protein kinase PAK 2 (Homo sapiens) (UniProt Q13177). Description: Inhibition of human PAK2 at 1 uM using substrate peptide by off-chip mobility shift assay.
For test [33], the target named is Lymphokine-activated killer T-cell-originated protein kinase (Homo sapiens) (UniProt Q96KB5). The experiment in a line: Inhibition of human PBK at 1 uM using substrate peptide by off-chip mobility shift assay.
In test [34] the target is 3-phosphoinositide-dependent protein kinase 1 (Homo sapiens) (UniProt O15530). The experiment in a line: Inhibition of human PDK1 at 1 uM using substrate peptide by off-chip mobility shift assay.
Test [35] addresses Serine/threonine-protein kinase pim-1 (Homo sapiens) (UniProt P11309). Description: Inhibition of human PIM1 at 1 uM using substrate peptide by off-chip mobility shift assay.
Test [36] has as its target cAMP-dependent protein kinase catalytic subunit alpha (Homo sapiens) (UniProt P17612). Description: Inhibition of human PKACalpha at 1 uM using substrate peptide by off-chip mobility shift assay.
Test [37] deals with Serine/threonine-protein kinase D2 (Homo sapiens) (UniProt Q9BZL6). The experiment in a line: Inhibition of human PKD2 at 1 uM using substrate peptide by off-chip mobility shift assay.
Test [38] concerns the target Rho-associated protein kinase 1 (Homo sapiens) (UniProt Q13464). The experiment in a line: Inhibition of human ROCK1 at 1 uM using substrate peptide by off-chip mobility shift assay.
Test [39] concerns the target Serine/threonine-protein kinase Sgk1 (Homo sapiens) (UniProt O00141). The experiment in a line: Inhibition of human SGK at 1 uM using substrate peptide by off-chip mobility shift assay.
The target of test [40] is Testis-specific serine/threonine-protein kinase 1 (Homo sapiens) (UniProt Q9BXA7). The experiment in a line: Inhibition of human TSSK1 at 1 uM using substrate peptide by off-chip mobility shift assay.

Cyclin-dependent kinase 19 (Homo sapiens), sequence (Q9BWU1 whole entry): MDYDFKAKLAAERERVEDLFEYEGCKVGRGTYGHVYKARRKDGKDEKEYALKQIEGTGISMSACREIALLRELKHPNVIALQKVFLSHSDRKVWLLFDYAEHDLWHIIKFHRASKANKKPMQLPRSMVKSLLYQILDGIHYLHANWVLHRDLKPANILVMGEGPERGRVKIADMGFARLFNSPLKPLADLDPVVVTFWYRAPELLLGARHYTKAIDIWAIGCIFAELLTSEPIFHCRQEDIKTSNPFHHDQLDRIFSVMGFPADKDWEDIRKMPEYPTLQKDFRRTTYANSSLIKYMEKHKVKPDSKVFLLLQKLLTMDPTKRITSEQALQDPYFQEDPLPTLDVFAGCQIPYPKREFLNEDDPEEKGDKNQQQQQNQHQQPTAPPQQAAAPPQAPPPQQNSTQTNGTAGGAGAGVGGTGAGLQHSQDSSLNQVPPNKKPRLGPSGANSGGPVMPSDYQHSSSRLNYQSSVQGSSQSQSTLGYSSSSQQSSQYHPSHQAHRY
Interleukin-1 receptor-associated kinase 4 (Homo sapiens), sequence (Q9NWZ3 whole entry): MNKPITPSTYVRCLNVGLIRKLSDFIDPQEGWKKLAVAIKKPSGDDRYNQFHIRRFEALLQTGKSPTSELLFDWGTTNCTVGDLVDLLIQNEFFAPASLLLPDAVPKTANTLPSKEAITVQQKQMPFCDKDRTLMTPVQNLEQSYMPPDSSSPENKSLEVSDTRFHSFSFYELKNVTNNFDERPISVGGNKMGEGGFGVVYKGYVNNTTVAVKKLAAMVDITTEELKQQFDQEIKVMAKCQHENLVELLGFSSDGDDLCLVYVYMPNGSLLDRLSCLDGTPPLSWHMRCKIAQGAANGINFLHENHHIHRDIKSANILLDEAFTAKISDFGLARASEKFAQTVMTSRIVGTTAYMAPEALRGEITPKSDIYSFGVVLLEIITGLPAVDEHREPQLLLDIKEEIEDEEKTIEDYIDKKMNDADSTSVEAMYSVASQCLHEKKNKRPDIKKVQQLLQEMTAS
Rho-associated protein kinase 1 (Homo sapiens), sequence (Q13464 2-1354 limits assumed): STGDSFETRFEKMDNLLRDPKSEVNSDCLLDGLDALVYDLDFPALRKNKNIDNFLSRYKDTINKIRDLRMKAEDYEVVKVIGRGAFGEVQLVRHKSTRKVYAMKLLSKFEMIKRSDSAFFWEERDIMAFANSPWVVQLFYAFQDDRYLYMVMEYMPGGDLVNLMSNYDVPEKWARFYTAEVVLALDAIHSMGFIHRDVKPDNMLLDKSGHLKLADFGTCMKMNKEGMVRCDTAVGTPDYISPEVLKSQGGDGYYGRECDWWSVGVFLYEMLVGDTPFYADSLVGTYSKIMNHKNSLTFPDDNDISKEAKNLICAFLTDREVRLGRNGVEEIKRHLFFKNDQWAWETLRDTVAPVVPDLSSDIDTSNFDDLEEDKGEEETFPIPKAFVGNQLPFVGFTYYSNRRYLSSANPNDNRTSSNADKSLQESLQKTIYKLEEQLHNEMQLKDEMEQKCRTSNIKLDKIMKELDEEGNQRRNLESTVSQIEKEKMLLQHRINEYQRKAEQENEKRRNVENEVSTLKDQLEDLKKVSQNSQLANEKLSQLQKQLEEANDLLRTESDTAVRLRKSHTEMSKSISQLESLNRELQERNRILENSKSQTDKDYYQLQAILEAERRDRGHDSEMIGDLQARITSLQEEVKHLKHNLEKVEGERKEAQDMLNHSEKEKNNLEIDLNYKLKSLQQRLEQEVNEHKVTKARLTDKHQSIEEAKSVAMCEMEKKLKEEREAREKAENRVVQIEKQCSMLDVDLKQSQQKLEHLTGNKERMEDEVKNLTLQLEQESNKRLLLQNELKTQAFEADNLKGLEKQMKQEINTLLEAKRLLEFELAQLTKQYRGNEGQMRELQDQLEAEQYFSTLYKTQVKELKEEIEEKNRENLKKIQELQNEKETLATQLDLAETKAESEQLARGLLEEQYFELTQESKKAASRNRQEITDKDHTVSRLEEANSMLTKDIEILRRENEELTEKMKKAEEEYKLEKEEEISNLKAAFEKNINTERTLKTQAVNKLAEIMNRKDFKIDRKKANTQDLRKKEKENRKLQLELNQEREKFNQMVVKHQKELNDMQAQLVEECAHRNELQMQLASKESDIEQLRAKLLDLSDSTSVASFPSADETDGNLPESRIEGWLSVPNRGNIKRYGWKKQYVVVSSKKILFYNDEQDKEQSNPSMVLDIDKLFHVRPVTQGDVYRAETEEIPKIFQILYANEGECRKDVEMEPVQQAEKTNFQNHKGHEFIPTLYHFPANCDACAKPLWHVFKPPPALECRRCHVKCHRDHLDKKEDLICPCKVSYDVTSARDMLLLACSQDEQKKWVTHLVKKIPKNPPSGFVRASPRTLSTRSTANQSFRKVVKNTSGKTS
Serine/threonine-protein kinase 4 (Homo sapiens), sequence (Q13043 whole entry): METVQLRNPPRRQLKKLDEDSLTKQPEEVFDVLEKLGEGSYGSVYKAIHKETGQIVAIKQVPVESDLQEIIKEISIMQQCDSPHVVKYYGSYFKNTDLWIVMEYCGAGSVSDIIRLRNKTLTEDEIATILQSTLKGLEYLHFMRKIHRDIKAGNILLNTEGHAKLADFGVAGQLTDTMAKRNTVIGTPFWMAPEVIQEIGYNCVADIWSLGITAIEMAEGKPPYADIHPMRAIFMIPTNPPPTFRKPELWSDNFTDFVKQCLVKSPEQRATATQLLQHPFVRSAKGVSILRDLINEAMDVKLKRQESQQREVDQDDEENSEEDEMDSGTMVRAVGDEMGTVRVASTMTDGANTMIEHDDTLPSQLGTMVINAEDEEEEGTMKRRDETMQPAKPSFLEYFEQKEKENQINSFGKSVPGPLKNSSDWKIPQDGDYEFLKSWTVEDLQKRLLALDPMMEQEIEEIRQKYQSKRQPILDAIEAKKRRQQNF
Serine/threonine-protein kinase pim-1 (Homo sapiens), sequence (P11309 whole entry, looked up): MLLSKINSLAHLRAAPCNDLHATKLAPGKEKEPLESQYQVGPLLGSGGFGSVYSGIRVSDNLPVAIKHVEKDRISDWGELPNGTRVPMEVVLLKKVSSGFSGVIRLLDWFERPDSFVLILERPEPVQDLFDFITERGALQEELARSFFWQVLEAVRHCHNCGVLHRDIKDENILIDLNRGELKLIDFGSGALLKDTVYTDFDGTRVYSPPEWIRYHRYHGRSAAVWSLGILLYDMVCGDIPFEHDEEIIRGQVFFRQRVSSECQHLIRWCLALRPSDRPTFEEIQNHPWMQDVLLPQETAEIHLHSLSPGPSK

Take `NC(=O)c1ccc([N+](=O)[O-])c(Nc2ccc(OCCOC3CCOCC3)cc2)c1`: the inhibition in [1] is > 90%. The inhibition at 1 µM in [2] was ≥ 50%.
With `CNC(=O)c1ccc([N+](=O)[O-])c(Nc2ccc(N3CC(OCCO)C3)cc2)c1`, the inhibition in test [1] is > 90%. For the same compound, the inhibition at 1 µM in test [2] is ≥ 50%.
The like results for `C=C(F)c1ccc(C(N)=O)cc1Oc1ccc(OCCOC2CCOCC2)cc1` were, in that order, > 90% and ≥ 50%.
The matching figures for `NC(=O)c1ccc([N+](=O)[O-])c(Nc2ccc(N3CC(OCCO)C3)cc2)c1`: > 90% and ≥ 50%.
Turning to `C[C@@H](O)c1ccc(C(N)=O)cc1Oc1ccc(OCCOC2CCOCC2)cc1`, the inhibition in test [1] and in [3] was > 90% throughout.
In the case of `CC(=O)c1ccc(C(N)=O)cc1Oc1ccc(N2CC(OCCO)C2)cc1`, the inhibition in test [1] is > 90%. For the same compound, the inhibition at 1 µM in [2] was ≥ 50%.
The matching figures for `NC(=O)c1ccc(C(F)(F)F)c(Oc2ccc(OCCOC3CCOCC3)cc2)c1`: > 90% and ≥ 50%.
With `CC(=O)c1ccc(C(N)=O)c(Oc2ccc(N3CC(OCCO)C3)cc2)c1`, the inhibition in [1] is > 90%.
The same measure, in the same setting: with `CC(C)OCCOCCOc1ccc(Oc2cc(C(N)=O)ccc2C(F)(F)F)cc1` the figure was > 90%.
As for `CC(=O)c1ccc(C(N)=O)cc1Oc1ccc(OCCOC2CCOC2)cc1` (configuration not stated), the inhibition in test [1] was > 90%. For the same compound, the inhibition at 1 µM in test [2] is ≥ 50%.
Regarding `CC(=O)c1ccc(C(N)=O)cc1Nc1ccc(OCCOCCCC(=O)O)cc1`, the inhibition in test [1] was > 90%.
Turning to `CC(=O)c1ccc(C(N)=O)cc1Oc1ccc(OCCOCCOC(C)C)cc1`, the inhibition in [1] is > 90%. Moreover, in test [2], the inhibition at 1 µM was ≥ 50%.
For the compound `COc1cc(Nc2ccc(N3CCN(CC(C)(C)C(=O)O)CC3)cc2)c([N+](=O)[O-])cc1F`, the inhibition in test [1] was > 90%.
As for `CC(=O)c1ccc(C(N)=O)cc1Oc1ccc(OCCOC2CCOCC2)cc1`, the inhibition in [1] and in [3] was > 90% each time. Besides, the inhibition entry in [4], in test [5], in [6], in test [7], in test [8] and in test [9] was “inactive” each time. The inhibition result in test [10], in test [11], in test [12], in test [13], in test [14] and in test [15] was “inactive” each time. Also, the inhibition result in test [16], in [17], in test [18], in test [19], in test [20] and in test [21] was “inactive” in each case. The inhibition result in test [22], in test [23], in test [24], in test [25], in [26] and in [27] was “inactive” each time. The inhibition entry in test [28], in test [29], in test [30], in test [31], in test [32] and in test [33] was “inactive” each time. In addition, the inhibition entry in test [34], in test [35], in test [36], in test [37], in test [38] and in test [39] was “inactive” in each case. For the same compound, in test [40], the inhibition result was “inactive”. The inhibition at 1 µM in test [2] was ≥ 50%.
